Legend:
[1] = molecular target: Auxenochlorella protothecoides ApPPO1 (protoporphyrinogen IX oxidase), wild type, SEQ ID NO: 1, fused to MBP (Auxenochlorella protothecoides, UniProt A0A087SQM0); experiment: PPO enzyme inhibition assay (IC50), MBP-fused PPO; format: biochemical; details: ApPPO1 WT; 50 μM protoporphyrinogen IX, pH 8.0, room temperature, 30 min
[2] = molecular target: Auxenochlorella protothecoides ApPPO1 (SEQ ID NO: 1) variant R140A, fused to MBP (Auxenochlorella protothecoides, UniProt A0A087SQM0, R140A); experiment: PPO enzyme inhibition assay (IC50), MBP-fused PPO; format: biochemical
Auxenochlorella protothecoides ApPPO1 (SEQ ID NO: 1) variant R140A, fused to MBP, sequence (A0A087SQM0 entry or part of it R140A): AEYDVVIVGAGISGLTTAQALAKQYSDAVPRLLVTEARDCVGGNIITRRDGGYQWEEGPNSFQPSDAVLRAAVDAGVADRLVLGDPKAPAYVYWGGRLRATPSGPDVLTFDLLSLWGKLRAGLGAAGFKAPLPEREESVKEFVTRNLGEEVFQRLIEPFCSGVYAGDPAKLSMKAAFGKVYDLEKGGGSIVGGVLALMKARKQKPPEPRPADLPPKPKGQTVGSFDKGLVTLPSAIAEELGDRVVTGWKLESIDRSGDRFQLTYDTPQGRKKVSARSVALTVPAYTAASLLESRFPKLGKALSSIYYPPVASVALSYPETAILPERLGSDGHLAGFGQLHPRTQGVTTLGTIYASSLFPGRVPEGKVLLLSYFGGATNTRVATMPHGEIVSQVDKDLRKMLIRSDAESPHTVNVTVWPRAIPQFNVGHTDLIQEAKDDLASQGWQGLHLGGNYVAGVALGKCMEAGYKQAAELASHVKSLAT
Protocol: (§2) Thus, PPO proteins of wild type and variants were expressed as fused to MBP and were used for experiments.
(§3) The following process for purification of PPO protein was performed in a 4° C. cold room. […] The column was washed with 3 column volumes of buffer and the presence of protein in the washing solution was examined. When the protein was no longer detected, the washing procedure was terminated. Then, the MBP-PPO protein was eluted with approximately 2 column volumes of buffer containing 20 mM maltose. The protein concentration of each eluent was determined and the elution was stopped when the protein was no longer detected. Ten microliter of each fraction was investigated for protein quantification and SDS-PAGE analysis. […]
(§4) Hundred and eighty microliters of a reaction mixture containing the purified PPO protein were placed in 96 well plates and 20 μl of purified PPO proteins were added. […] The reaction proceeded at room temperature for 30 min and the fluorescence of protoporphyrin IX was measured using Microplate reader (Sense, Hidex) (excitation: 405 nm; emission: 633 nm). […] To this, 2.7 N HCl was added, and the absorbance at 408 nm was measured. A standard curve was generated using standard protoporphyrin IX, and PPO activity was measured by calibration of protoporphyrin IX using the standard curve of protoporphyrin IX.

[3] = molecular target: Auxenochlorella protothecoides ApPPO1 (SEQ ID NO: 1) variant V213C, fused to MBP (Auxenochlorella protothecoides, UniProt A0A087SQM0, V213C); experiment: biochemical
Auxenochlorella protothecoides ApPPO1 (SEQ ID NO: 1) variant V213C, fused to MBP, sequence (A0A087SQM0 entry or part of it V213C): as the sequence (A0A087SQM0 entry or part of it R140A) above, with A90R, V163C counted along it
Protocol: as §2, §3, §4

[4] = molecular target: Auxenochlorella protothecoides ApPPO1 (SEQ ID NO: 1) variant A215L, fused to MBP (Auxenochlorella protothecoides, UniProt A0A087SQM0, A215L); experiment: biochemical
Auxenochlorella protothecoides ApPPO1 (SEQ ID NO: 1) variant A215L, fused to MBP, sequence (A0A087SQM0 entry or part of it A215L): as the sequence (A0A087SQM0 entry or part of it R140A) above, with A90R, A165L counted along it
Protocol: as §2, §3, §4

[5] = molecular target: Auxenochlorella protothecoides ApPPO1 (SEQ ID NO: 1) variant V360M, fused to MBP (Auxenochlorella protothecoides, UniProt A0A087SQM0, V360M); experiment: PPO enzyme inhibition assay (IC50), MBP-fused PPO; format: biochemical
Auxenochlorella protothecoides ApPPO1 (SEQ ID NO: 1) variant V360M, fused to MBP, sequence (A0A087SQM0 entry or part of it V360M): as the sequence (A0A087SQM0 entry or part of it R140A) above, with A90R, V310M counted along it

[6] = molecular target: Auxenochlorella protothecoides ApPPO1 (SEQ ID NO: 1) variant F386V, fused to MBP (Auxenochlorella protothecoides, UniProt A0A087SQM0, F386V); experiment: PPO enzyme inhibition assay (IC50), MBP-fused PPO; format: biochemical
Auxenochlorella protothecoides ApPPO1 (SEQ ID NO: 1) variant F386V, fused to MBP, sequence (A0A087SQM0 entry or part of it F386V): as the sequence (A0A087SQM0 entry or part of it R140A) above, with A90R, F336V counted along it

[7] = molecular target: T1, Myxococcus xanthus MxPPO (protoporphyrinogen IX oxidase), wild type, SEQ ID NO: 3, fused to MBP (Myxococcus xanthus, UniProt P56601); experiment: PPO enzyme inhibition assay (IC50), MBP-fused PPO (Table 15); format: biochemical; details: protoporphyrinogen IX 50 μM, room temperature, 30 min
T1 construct: For encoding the PPO protein (MxPPO); made in house; host or cells: BL21 CodonPlus(DE3) E. coli
T1 sequence (P56601 whole entry, the tested form may be a part): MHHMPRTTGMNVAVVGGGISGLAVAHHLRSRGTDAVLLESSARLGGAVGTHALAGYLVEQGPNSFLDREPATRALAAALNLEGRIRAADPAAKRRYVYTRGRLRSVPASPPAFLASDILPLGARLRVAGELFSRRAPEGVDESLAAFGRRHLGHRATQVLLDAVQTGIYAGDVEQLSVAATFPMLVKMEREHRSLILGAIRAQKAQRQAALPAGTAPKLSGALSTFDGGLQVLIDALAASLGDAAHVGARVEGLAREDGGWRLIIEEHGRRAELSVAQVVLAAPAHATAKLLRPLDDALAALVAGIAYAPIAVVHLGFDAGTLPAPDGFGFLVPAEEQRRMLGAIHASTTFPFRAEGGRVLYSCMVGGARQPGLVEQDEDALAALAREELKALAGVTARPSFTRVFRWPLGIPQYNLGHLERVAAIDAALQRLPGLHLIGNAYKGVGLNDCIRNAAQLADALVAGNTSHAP

[8] = molecular target: T2, Myxococcus xanthus MxPPO (SEQ ID NO: 3) variant V164A, fused to MBP (Myxococcus xanthus, UniProt P56601, V164A); experiment: as above; format: biochemical
T2 construct: For encoding the PPO protein (MxPPO); made in house; host or cells: BL21 CodonPlus(DE3) E. coli
T2 sequence (P56601 whole entry V164A, the tested form may be a part): as the sequence (P56601 whole entry, the tested form may be a part) above, with V164A counted along it

[9] = molecular target: T3, Myxococcus xanthus MxPPO (SEQ ID NO: 3) variant A170C, fused to MBP (Myxococcus xanthus, UniProt P56601, A170C); experiment: as above; format: biochemical
T3 construct: made in house; host or cells: BL21 CodonPlus(DE3) E. coli
T3 sequence (P56601 whole entry A170C, the tested form may be a part): as the sequence (P56601 whole entry, the tested form may be a part) above, with A170C counted along it
Protocol: as §2
(§5) In order to express wild type and variant proteins of ApPPO1 and MxPPO, those genes were introduced into pMAL-c2x vector (refer to FIG. 25), respectively.
as §3
(§6) Hundred and eighty microliters of a reaction mixture containing the purified PPO protein were placed in 96 well plates and 20 μl of purified PPO proteins were added. […] The reaction proceeded at room temperature for 30 min and the fluorescence of protoporphyrin IX was measured using Microplate reader (Sense, Hidex) (excitation: 405 nm; emission: 633 nm). […] To this, 2.7 N HCl was added, and the absorbance at 408 nm was measured. […]

[10] = molecular target: T4, Myxococcus xanthus MxPPO (SEQ ID NO: 3) variant A170L, fused to MBP (Myxococcus xanthus, UniProt P56601, A170L); experiment: biochemical
T4 construct: made in house; host or cells: BL21 CodonPlus(DE3) E. coli
T4 sequence (P56601 whole entry A170L, the tested form may be a part): as the sequence (P56601 whole entry, the tested form may be a part) above, with A170L counted along it
Protocol: as §2, §5, §3, §6

[11] = molecular target: T5, Myxococcus xanthus MxPPO (SEQ ID NO: 3) variant I311M, fused to MBP (Myxococcus xanthus, UniProt P56601, I311M); experiment: biochemical
T5 construct: made in house; host or cells: BL21 CodonPlus(DE3) E. coli
T5 sequence (P56601 whole entry I311M, the tested form may be a part): as the sequence (P56601 whole entry, the tested form may be a part) above, with I311M counted along it
Protocol: as §2, §5, §3, §6

[12] = molecular target: T6, Myxococcus xanthus MxPPO (SEQ ID NO: 3) variant F329V, fused to MBP (Myxococcus xanthus, UniProt P56601, F329V); experiment: PPO enzyme inhibition assay (IC50), MBP-fused PPO (Table 15); format: biochemical
T6 construct: For encoding the PPO protein (MxPPO); made in house; host or cells: BL21 CodonPlus(DE3) E. coli
T6 sequence (P56601 whole entry F329V, the tested form may be a part): as the sequence (P56601 whole entry, the tested form may be a part) above, with F329V counted along it
Protocol: as §2, §5, §3, §6

[13] = molecular target: T7, Myxococcus xanthus MxPPO (SEQ ID NO: 3) variant L332T, fused to MBP (Myxococcus xanthus, UniProt P56601, L332T); experiment: as above; format: biochemical
T7 construct: made in house; host or cells: BL21 CodonPlus(DE3) E. coli
T7 sequence (P56601 whole entry L332T, the tested form may be a part): as the sequence (P56601 whole entry, the tested form may be a part) above, with L332T counted along it
Protocol: as §2, §5, §3, §6

[14] = test system: E. coli BT3(ΔPPO) transformed with Auxenochlorella protothecoides ApPPO1 wild type, SEQ ID NO: 1; experiment: Herbicide tolerance test in PPO-deficient E. coli BT3(ΔPPO), growth on plates; format: cell-based; details: ApPPO1 WT, 37° C., 16 to 20 hours
Protocol: (§1) Then, the extent of tolerance was evaluated.

[15] = test system: E. coli BT3(ΔPPO) transformed with Myxococcus xanthus MxPPO wild type, SEQ ID NO: 3; experiment: as above; format: cell-based; details: MxPPO WT, light
Protocol: as §1

[16] = test system: E. coli BT3(ΔPPO) transformed with Auxenochlorella protothecoides ApPPO1 (SEQ ID NO: 1) variant A215C (AC); experiment: as above; format: cell-based; details: Table 7, light, 37° C., 16 to 20 hours, vs wild type at highest herbicide concentration
Protocol: (§7) The mutated CyPPO gene obtained from the Example 2 was transformed to BT3 (ΔPPO) strain which is deficient of PPO activity and cultured in LB media with PPO-inhibiting herbicide, thereby examining whether growth of transformed BT3 was not inhibited.
(§8) BT3 competent cells were transformed with the pET303-ApPPO1 and pET303-MxPPO plasmids and those with a mutation(s) constructed in Example 2 respectively, and were cultured in LB agar media containing carbenicillin (Gold Biotechnology, Co., Ltd.).
(§9) Single colony of E. coli transformed with each CyPPO gene was cultured in 3 ml of LB broth containing carbenicillin overnight, and then was subcultured until absorbance (OD600) reached 0.5 to 1. Then, it was diluted with LB broth to OD600=0.5. Again, the diluted solution was serially diluted 4 times by a factor of one tenth.
(§10) The LB agar media (LB 25 g/l, Bacto agar 15 g/l) containing carbenicillin (100 μg/ml) and 0 to 4,000 μM of various herbicides dissolved in DMSO was prepared. Next, 10 μl of each diluted solution was dropped on the plate and cultured at 37° C. under light (Tables 7, 9 and 10, FIGS. 2 to 6, 13 to 20) or dark (Tables 8 and 11, FIGS. 7 to 12, 21 to 24) for 16 to 20 hours. Then, the extent of tolerance was evaluated.
(§11) The extent of herbicide tolerance of the ApPPO1 or MxPPO mutated genes was evaluated by comparing that of mutated genes with that of ApPPO1 or MxPPO wild type. The relative tolerance was represented with “+” as a factor of 10 times.
(§12) In Tables 7 to 11, tolerance level was presented as ‘−’ of tolerance of wild type and of variants equivalent to that of wild type, and was done as ‘+’ per each 10 fold resistance until ‘+++++’ as maximal resistance. […] A dilution series (OD600=0.5, 0.05, 0.005, 0.0005, 0.00005) was made and spotted on LB agar plates supplemented with herbicides.

[17] = test system: E. coli BT3(ΔPPO) transformed with Auxenochlorella protothecoides ApPPO1 (SEQ ID NO: 1) variant A215L (AL); experiment: as above; format: cell-based; details: Table 7, light, 37° C., 16 to 20 hours, vs wild type at highest herbicide concentration
Protocol: as §7, §8, §9, §10, §11, §12

[18] = test system: E. coli BT3(ΔPPO) transformed with Auxenochlorella protothecoides ApPPO1 (SEQ ID NO: 1) variant Y422T (YT); experiment: as above; format: cell-based; details: Table 7, light, 37° C., 16 to 20 hours, vs wild type at highest herbicide concentration
Protocol: as §7, §8, §9, §10, §11, §12

[19] = test system: E. coli BT3(ΔPPO) transformed with Auxenochlorella protothecoides ApPPO1 (SEQ ID NO: 1) variant Y422M (YM); experiment: as above; format: cell-based; details: Table 7, light, 37° C., 16 to 20 hours, vs wild type at highest herbicide concentration
Protocol: as §7, §8, §9, §10, §11, §12

[20] = test system: E. coli BT3(ΔPPO) transformed with Auxenochlorella protothecoides ApPPO1 (SEQ ID NO: 1) variant Y422L (YL); experiment: as above; format: cell-based; details: Table 7, light, 37° C., 16 to 20 hours, vs wild type at highest herbicide concentration
Protocol: as §7, §8, §9, §10, §11, §12

[21] = test system: E. coli BT3(ΔPPO) transformed with Myxococcus xanthus MxPPO (SEQ ID NO: 3) variant A170L; experiment: as above; format: cell-based; details: Table 9, light, tiafenacil to 2000 μM, saflufenacil to 200 μM, flumioxazin to 100 μM
Protocol: as §7, §8, §9, §10
(§13) The extent of herbicide tolerance of the ApPPO1 or MxPPO mutated genes was evaluated by comparing that of mutated genes with that of ApPPO1 or MxPPO wild type. […]

[22] = test system: E. coli BT3(ΔPPO) transformed with Myxococcus xanthus MxPPO (SEQ ID NO: 3) variant M365I; experiment: as above; format: cell-based; details: Table 9, light, tiafenacil to 2000 μM, saflufenacil to 200 μM, flumioxazin to 100 μM
Protocol: as §7, §8, §9, §10, §13

[23] = test system: E. coli BT3(ΔPPO) transformed with Myxococcus xanthus MxPPO (SEQ ID NO: 3) variant M365L; experiment: as above; format: cell-based; details: Table 9, light, tiafenacil to 2000 μM, saflufenacil to 200 μM, flumioxazin to 100 μM
Protocol: as §7, §8, §9, §10, §13

[24] = test system: E. coli BT3(ΔPPO) transformed with Myxococcus xanthus MxPPO (SEQ ID NO: 3) variant M365V; experiment: as above; format: cell-based; details: Table 9, light, tiafenacil to 2000 μM, saflufenacil to 200 μM, flumioxazin to 100 μM
Protocol: as §7, §8, §9, §10, §13

Auxenochlorella protothecoides ApPPO1 (protoporphyrinogen IX oxidase), wild type, SEQ ID NO: 1, fused to MBP, sequence (A0A087SQM0 51-532): as the sequence (A0A087SQM0 entry or part of it R140A) above, with A90R counted along it

For `COC(=O)CCNC(=O)C(C)Sc1cc(-n2c(=O)cc(C(F)(F)F)n(C)c2=O)c(F)cc1Cl` (centres unmarked) [tiafenacil], the IC50 [1] was 21 nM, the IC50 [2] was 86 nM and the IC50 [3] was 81 nM. It also gave an IC50 [4] of 3460 nM, an IC50 [5] of 75 nM and an IC50 [6] of 368 nM. The IC50 [7] was 0.242 µM, the IC50 [8] was 367 nM and the IC50 [9] was 1680 nM. The IC50 [10] was over 5000 nM, the IC50 [11] was 964 nM and the IC50 [12] was 239 nM. For the same compound, the IC50 [13] was 1010 nM, the “relative herbicide tolerance level” value ([14]; Table 7, light, vs wild type at highest herbicide concentration) was “−” and the “relative herbicide tolerance level” value ([14]; Table 8, dark, tiafenacil to 200 μM, flumioxazin to 100 μM, sulfentrazone to 400 μM) was “−”. The “relative herbicide tolerance level” value ([15]; Table 9, tiafenacil to 2000 μM, saflufenacil to 200 μM, flumioxazin to 100 μM) was “−”, the “relative herbicide tolerance level” value ([15]; Table 10, tiafenacil 2000 μM, flumioxazin to 400 μM, sulfentrazone to 1000 μM) was “−” and the “relative herbicide tolerance level” value [16] was “+ (1-9 fold higher tolerance)”. The “relative herbicide tolerance level” value [17] was “++ (10-99 fold higher tolerance)”, the “relative herbicide tolerance level” value [18] was “++ (10-99 fold higher tolerance)” and the “relative herbicide tolerance level” value [19] was “+++ (100-999 fold higher tolerance)”. For the same compound, the “relative herbicide tolerance level” value [20] was “++ (10-99 fold higher tolerance)”, the “relative herbicide tolerance level” value [21] was “+ (1-9 fold higher tolerance)” and the “relative herbicide tolerance level” value [22] was “+ (1-9 fold higher tolerance)”. For the same compound, the “relative herbicide tolerance level” value [23] was “+ (1-9 fold higher tolerance)” and the “relative herbicide tolerance level” value [24] was “+ (1-9 fold higher tolerance)”.
